The source made the active and inactive calls. The rule behind the calls is not given here. Where only a bound is given, the exact number is not on record here.

The target in this assay is Ubiquitin carboxyl-terminal hydrolase 10 (Homo sapiens) (UniProt Q14694). Briefly: primary hit verification, biochemical, ubiquitin-specific protease 10 deubiquitylase inhibitors, concentration-effect titration (AID 1645863).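 Note: potency values describe inhibition of USP10 cleavage of a fluorogenic ubiquitin substrate.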 The note with it: USP10 deubiquitinase enzymatic assay.
Sequence of Ubiquitin carboxyl-terminal hydrolase 10 (Homo sapiens) (Q14694 whole entry, looked up): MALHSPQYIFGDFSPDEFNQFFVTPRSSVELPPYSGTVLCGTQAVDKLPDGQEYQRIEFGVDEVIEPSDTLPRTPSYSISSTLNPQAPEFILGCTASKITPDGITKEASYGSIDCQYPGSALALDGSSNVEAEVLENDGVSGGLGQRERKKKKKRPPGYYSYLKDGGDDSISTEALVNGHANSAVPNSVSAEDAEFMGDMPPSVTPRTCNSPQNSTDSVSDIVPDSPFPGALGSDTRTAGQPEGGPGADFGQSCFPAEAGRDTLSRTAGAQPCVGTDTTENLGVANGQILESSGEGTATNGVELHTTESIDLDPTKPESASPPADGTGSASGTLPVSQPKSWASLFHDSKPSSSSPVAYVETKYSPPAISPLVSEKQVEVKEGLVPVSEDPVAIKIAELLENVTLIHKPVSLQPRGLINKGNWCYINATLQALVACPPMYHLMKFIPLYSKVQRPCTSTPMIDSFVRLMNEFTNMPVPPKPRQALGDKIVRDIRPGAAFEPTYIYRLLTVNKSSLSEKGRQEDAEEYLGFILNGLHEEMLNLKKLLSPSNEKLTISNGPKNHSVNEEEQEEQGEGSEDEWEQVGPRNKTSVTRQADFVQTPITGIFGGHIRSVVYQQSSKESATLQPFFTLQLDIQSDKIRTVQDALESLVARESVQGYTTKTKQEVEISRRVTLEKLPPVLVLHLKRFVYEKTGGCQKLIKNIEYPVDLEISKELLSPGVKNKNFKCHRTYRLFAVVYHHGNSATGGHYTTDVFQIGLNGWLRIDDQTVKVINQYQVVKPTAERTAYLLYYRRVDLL
Take `Cc1ccc(NC(=O)Nc2ccc(C)n(CC(=O)Nc3ccc(C)c(C)c3)c2=O)cc1`: the IC50 is 11.1 µM.

Turning to `CCOc1ccc(CC(=O)Nc2ccc(-c3cn4cccnc4n3)cc2)cc1`, the IC50 is > 40 µM (inactive).

As to `COc1cc(Cl)c(NC(=O)c2cc(-c3ccccn3)n[nH]2)c(OC)c1`, the IC50 was > 40 µM (inactive).

In the case of `CCCCCCCCC/C=C/C(=O)CCc1c(O)c(C=O)c2c(c1O)C(=O)OC2O` (stereo not given), the IC50 is 0.584 µM.

For `Cc1c(-c2nsc(NC(=O)c3ccc(Cl)cc3)n2)nnn1-c1ccccc1F`, the IC50 is 15.7 µM.

In the case of `COc1cc(NC(=O)Cn2nc(-c3ccc(F)cc3)ccc2=O)ccc1-n1cnnn1`, the IC50 was > 40 µM (inactive).

For `N#C/C(=C\c1ccc(OCc2cccc(C(=O)O)c2)cc1)c1ccc(F)cc1`, the IC50 was 20.2 µM.

Turning to `Cn1cc(-c2nc(C(=O)Nc3ccc(C#N)cc3)cs2)c2cccnc21`, the IC50 is > 40 µM (inactive).

`O=C(COc1ccc(C2CCCCC2)cc1)Nc1ccc(-c2nn3cnnc3s2)cc1`: the IC50 is > 40 µM (inactive).

With `CC(C)=CCC[C@H](C(=O)O)[C@@H]1CC[C@]2(C)C3=C(CC[C@@]12C)[C@@]1(C)CCC(=O)C(C)(C)C1CC3` (stereo not given in full), the IC50 is 23.8 µM.

For the compound `COc1ccc(Oc2cc3n(c(=O)n2)CCc2cc(OC)c(OC)cc2-3)cc1`, the IC50 is > 40 µM (inactive).

On to `O=C(NCC1(c2ccccc2)CCC1)c1nc2n(n1)-c1ccccc1S(=O)(=O)N2`, for which the IC50 was 12.8 µM.

For `COc1cc2c(=O)n(CC3CCCO3)c(=O)n(CC(=O)c3ccc4c(c3)OCO4)c2cc1OC` (stereo not given), the IC50 is 37.4 µM.

For the compound `CC(=O)Nc1ccc(NC(=O)c2ccc3c(c2)CC(c2ccccc2)OC3=O)cc1` (stereo not given), the 50% inhibitory concentration (IC50) is 14.6 µM.

In the case of `Cc1ccc2cc(-c3noc(CCC(=O)NC4CCCC4)n3)c(=O)[nH]c2c1`, the IC50 is > 40 µM (inactive).

As for `COc1ccc(C)cc1NC(=O)CN1C(=O)C2CCCC2=Nc2ccccc21` (stereo not given), the IC50 was > 40 µM (inactive).

In the case of `CC(NC(=O)c1nc2n(n1)-c1ccccc1S(=O)(=O)N2)c1cc2ccccc2o1` (stereo not given), the IC50 is 30.7 µM.

Take `COc1ccccc1CNC(=O)CCCCn1c(=O)c2ccccc2n(Cc2ccc(C)cc2)c1=O`: the IC50 is 20.8 µM.

Consider `O=C(CSc1ccc(-c2cccc([N+](=O)[O-])c2)nn1)Nc1cccc(F)c1`, for which the IC50 is 15.9 µM.

`COc1ccc(C2(c3nnc(C(C)Oc4ccc(F)cc4)o3)CCOCC2)cc1` (stereo not given): the IC50 was > 40 µM (inactive).

In the case of `CC1=CC(=O)C(C2=C(O)C(=O)C(C)=CC2=O)=C(O)C1=O`, the IC50 was 12 µM.

Regarding `Fc1ccccc1-c1nnc(C2(c3ccc4c(c3)OCO4)CCOCC2)o1`, the IC50 is > 40 µM (inactive).

Regarding `Cc1cc(=O)[nH]c(SCC(=O)c2cc(C)n(CCC3=CCCCC3)c2C)c1C#N`, the IC50 is > 40 µM (inactive).

Regarding `Cc1ccc2[nH]c(=O)c(-c3nc4ccccn4c3NCc3ccccc3)cc2c1`, the IC50 is 23.7 µM.

In the case of `Cc1cc(NC(=O)CN2CCCN(S(=O)(=O)c3ccc(F)cc3)CC2)ccc1Br`, the IC50 is > 40 µM (inactive).

With `Cc1ccc(NC(=O)Nc2ccc(C)n(CC(=O)Nc3ccc(C)cc3C)c2=O)cc1`, the IC50 was 21.9 µM.

Consider `CCc1[nH]c(=O)cc2cc(OC)c(OC)cc12`, for which the IC50 was 2.97 µM.

On to `COc1ccccc1CNC(=O)Cn1cnc2c(-c3ccccc3)csc2c1=O`, for which the IC50 is > 40 µM (inactive).

In the case of `Cc1cc(CN2CCCCC2c2cc(=O)n3ccnc3[nH]2)no1` (stereo not given), the IC50 was > 40 µM (inactive).

On to `COc1ccc(NS(=O)(=O)c2cc(NC(=O)/C=C/c3ccco3)ccc2N2CCCC2)cc1`, for which the IC50 is > 40 µM (inactive).

For the compound `COc1ccc(OC)c(NC(=O)c2cc(Cl)ccc2OC)c1`, the IC50 was > 40 µM (inactive).

Consider `O=C(Nc1cccc(F)c1)Nc1cccc(-c2nnc(-c3ccccc3)o2)c1`, for which the IC50 is 18.2 µM.

As for `COc1cc(Cl)c(C)cc1NC(=O)Cn1c(=O)n(CC(=O)NCc2ccco2)c(=O)c2ccccc21`, the IC50 was 16.3 µM.

With `COc1ccc(-c2cc3nc([C@H](C)NC(=O)Cc4ccccc4C)nn3cn2)cc1`, the IC50 was > 40 µM (inactive).

With `Cc1[nH]nc(NC(=O)C2COc3ccccc3O2)c1-c1ccccc1` (stereo not given), the IC50 is > 40 µM (inactive).

As to `Nc1c(C(=O)NCc2ccc3c(c2)OCO3)nnn1Cc1ccc(Br)cc1F`, the IC50 was 18.4 µM.

For `COc1ccccc1NC(=O)CSC1=NC2(CCCCC2)Nc2ccccc21`, the IC50 was > 40 µM (inactive).

Consider `O=C(/C=C/c1ccco1)c1cccc([N+](=O)[O-])c1`, for which the IC50 is 35.1 µM.

As for `CCc1nc(SCC(=O)Nc2cc(Cl)ccc2C)c2oc3ccccc3c2n1`, the 50% inhibitory concentration (IC50) is 1.14 µM.

With `COc1c(C)c(C(O)C(C)O)c2[nH]c3ccc(CC=C(C)C)cc3c2c1O` (stereo not given), the IC50 was > 40 µM (inactive).

Turning to `O=C(Nc1ccccc1)Nc1ccc(F)c(-c2nnc(-c3ccccc3)o2)c1`, the IC50 is > 40 µM (inactive).

Regarding `Cc1ccc2[nH]c3c(=O)n(Cc4ccc(N(C)C)cc4)cnc3c2c1`, the IC50 is 19.5 µM.

With `COc1cccc(C(=O)Nc2ccc(SC(C(=O)Nc3ccccc3)c3ccccc3)cc2)c1` (stereo not given), the IC50 was > 40 µM (inactive).

As for `O=C(Nc1ccccc1C(=O)O)c1ccc(CSCc2ccccc2)cc1`, the IC50 was 10.4 µM.

In the case of `CCOC(=O)C1CCN(Cc2cc(=O)oc3cc(O)c(O)cc23)CC1`, the IC50 was 1.68 µM.

As for `Cc1ccc(-n2nc(C)c3c2NC(=O)CC3C(=O)c2cc3ccccc3o2)cc1` (stereo not given), the IC50 is > 40 µM (inactive).

Consider `COCCCn1c(C(=O)NCc2ccccc2)cc2c(=O)n3ccccc3nc21`, for which the IC50 was > 40 µM (inactive).

In the case of `COc1cccc2cc(-c3nnc(SCC(=O)c4ccc(F)cc4)n3C)oc12`, the IC50 is > 40 µM (inactive).

Regarding `CCOC(=O)c1cc2c(ccn2C)n1CC(=O)NC1CC1`, the IC50 was > 40 µM (inactive).

`CCCc1nnc(NC(=O)c2cc(-c3ccccc3O)n[nH]2)s1`: the IC50 is > 40 µM (inactive).

On to `O=C(Nc1cccnc1)C1c2ccccc2C(=O)N(c2ccccc2)C12CCCCC2` (stereo not given), for which the IC50 is > 40 µM (inactive).

Turning to `O=C(NCc1ccc2c(c1)OCO2)c1[nH]nc2c1COc1ccccc1-2`, the IC50 is 15.2 µM.

For the compound `O=c1[nH]cccc1NS(=O)(=O)c1ccc(F)cc1`, the IC50 is > 40 µM (inactive).

Consider `Cc1ccccc1-c1noc(-c2cccn(CC(=O)Nc3ccccc3F)c2=O)n1`, for which the IC50 was > 40 µM (inactive).

For `COc1cccc(N2CCCN(C(=O)c3ccc4nc(C)[nH]c4c3)CC2)c1`, the IC50 was > 40 µM (inactive).

For the compound `COc1cc2c(c(OCC(=O)Nc3ccc4c(c3)OCCO4)c1)C(=O)O[C@@H](C)CCCC(=O)CCCCC2`, the IC50 is 31.5 µM.

For `Cc1ccc(-n2c(=O)[nH]c3c(C(N)=O)nc(-c4ccc(OCc5ccccc5)cc4)nc32)cc1`, the IC50 was > 40 µM (inactive).

Turning to `O=C1Nc2ccccc2C(=O)C1C(c1ccc(Cl)cc1)C1C(=O)Nc2ccccc2C1=O` (stereo not given), the IC50 is 10.2 µM.

For the compound `Cc1nc(N2CCN(c3ccc(Cl)cc3)CC2)c2oc3ccccc3c2n1`, the IC50 is 17.7 µM.

Take `CCc1noc(-c2ccn3c(CC(=O)Nc4ccccc4C)nnc3c2)n1`: the concentration for half-maximal inhibition (IC50) is 8 µM.

`N=C1/C(=C/c2cn(Cc3ccccc3F)c3ccccc23)C(=O)N=C2SC(C(F)(F)F)=NN12`: the IC50 result is “inactive”.

In the case of `O=C(CCn1c(=O)c2ccccc2n(CC(=O)OCc2ccccc2)c1=O)NCc1ccc2c(c1)OCO2`, the IC50 is 17.5 µM.

On to `O=C1Cc2ccccc2C(=O)N1Cc1cccc(Cl)c1`, for which the IC50 is 24.1 µM.

Take `O=C(NCc1ccc2c(c1)OCO2)c1cc2c(s1)-c1ccccc1OC2`: the IC50 was > 40 µM (inactive).

As for `COc1ccc(Cl)cc1NC(=O)Cn1c(=O)n(CCC(=O)NC2CCCC2)c(=O)c2ccccc21`, the IC50 is > 40 µM (inactive).

Consider `CCc1cccc(C)c1NC(=O)Cn1nc2ccc(C(=O)NCc3ccccc3)cn2c1=O`, for which the IC50 was 29.3 µM.

As to `O=C(CCCc1nnc2c(=O)n(-c3cccc(F)c3)ccn12)Nc1ccccc1`, the IC50 was > 40 µM (inactive).

Consider `Cc1nc(-c2noc(-c3cccc(F)c3)n2)cn1CC(=O)Nc1ccccc1`, for which the IC50 was 15.8 µM.

In the case of `Cc1cccc(C)c1NC(=O)Cn1c(=O)n(CCCCC(=O)NCc2ccc3c(c2)OCO3)c(=O)c2ccccc21`, the IC50 is 22.3 µM.

For `CCOC(=O)N1CCN(C(=O)c2ccc(CS(=O)c3ccccc3Cl)o2)CC1` (stereo not given), the IC50 is > 40 µM (inactive).

Consider `Cn1nc(Cl)c(Cl)c1Oc1ccc(S(=O)(=O)Nc2ccc(Oc3ccc(C(F)(F)F)cn3)c(Cl)c2)cc1`, for which the IC50 was 13 µM.

Consider `COc1ccc2[nH]c(=O)c(CN(C)C(=O)c3ccc([N+](=O)[O-])cc3)cc2c1`, for which the IC50 is > 40 µM (inactive).

Turning to `O=c1c2[nH]c3ccccc3c2ncn1CCC1=CCCCC1`, the IC50 was > 40 µM (inactive).

For the compound `COc1ccccc1CN1CCC(c2cc(=O)[nH]c(-c3cccnc3)n2)CC1`, the IC50 was > 40 µM (inactive).

Take `O=C(COC(=O)c1cc2c(s1)CCC2)c1ccc2[nH]c(=O)[nH]c2c1`: the IC50 was > 40 µM (inactive).

As to `NS(=O)(=O)c1cccc(NC(=O)/C=C/c2cn(-c3ccccc3)nc2-c2cccc([N+](=O)[O-])c2)c1`, the IC50 was 27.4 µM.

`CCC(=O)N1c2ccccc2NC2=C(C(=O)CC(c3ccccc3OCc3ccccc3)C2)C1c1ccccc1` (stereo not given): the IC50 was 35.7 µM.

Consider `Cc1c(-c2nc(-c3ccccc3Cl)no2)nnn1-c1cccc(F)c1`, for which the IC50 is > 40 µM (inactive).

Consider `Cc1ccc(C2SCC(=O)Nc3c2c(=O)[nH]n3C2CCCCC2)cc1` (stereo not given), for which the IC50 was 28.8 µM.

`O=c1oc2c3c(c(Cl)cc2c2c1CCCC2)OCN(Cc1ccccc1)C3`: the IC50 is > 40 µM (inactive).

Consider `COCCn1c(=O)[nH]c2cc(C(=O)NCCNc3ccc([N+](=O)[O-])cc3C#N)ccc2c1=O`, for which the IC50 is 15.5 µM.

Consider `O=C(NCCc1ccccc1)c1ccc2c(=O)n(Cc3ccco3)c(=O)n(Cc3cccc([N+](=O)[O-])c3)c2c1`, for which the IC50 was 8.37 µM.

On to `Cc1ccc(Nc2nc(O)c(CC(=O)Nc3ccc(C)cc3C)s2)cc1`, for which the IC50 is 14.6 µM.

For the compound `CCn1cc2c(n1)c(=O)n(Cc1ccccc1)c(=O)n2CC(=O)Nc1ccc(C(C)C)cc1`, the IC50 was 15 µM.

As for `COc1ccc(-c2cc3nc([C@H](C)NC(=O)Cc4cccc(F)c4)nn3cn2)cc1`, the IC50 was > 40 µM (inactive).

Broadly, the IC50 is the concentration that inhibits the measured activity by half.

The values above are taken from PubChem BioAssay AID1645863 (Buhrlage Lab, Dana-Farber Cancer Institute and Novartis …, 2021).
